Source: US20030195376A1, “Novel intermediate and processes for its preparation and conversion into a pharmacologically-active agent” (priority 2002, published 2003)

What was measured:
[1] = Solubility in solvents (product characteristics); format: physicochemical; conditions: in methanol
[2] = in vivo; cited from earlier work
[3] = system: neuronal uptake of dopamine; conditions: relative to serotonin-norepinephrine uptake; cited from earlier work
[4] = ethanol, chloroform, dichloromethane, acetone, ethyl acetate, benzene, toluene and isopropyl alcohol

With `COc1ccc(C(CN)C2(O)CCCCC2)cc1` (stereo not shown) [formula (X), 1-[2-amino-1-(4-methoxy-phenyl)-ethyl]-cyclohexanol] the Solubility ([1]; chloroform and water) was “Soluble in methanol, chloroform and water”.
In the case of `COc1ccc(C(CN(C)C)C2(O)CCCCC2)cc1` (racemic) [formula (IX), (±)-1-[2-dimethylamino-1-(4-methoxy-phenyl)-ethyl]-cyclohexanol], the “effectiveness compared with standard antidepressants such as imipramine” value [2] is given as “as effective as” and the “inhibition of neuronal uptake of dopamine” value [3] is given as “to a lesser extent”.
For `COc1ccc(C(=O)C2(Br)CCCCC2)cc1` [formula (II), (1-bromo-cyclohexyl)-(4-methoxy-phenyl)-methanone], the Solubility [1, 4] was “Soluble in methanol, ethanol, chloroform, dichloromethane,”.
With `COc1ccc(C(O)C2CCCCC2)cc1` (stereo not shown) [formula (V), cyclohexyl-(4-methoxy-phenyl)-methanol] the Solubility ([1]; ethanol, chloroform, dichloromethane, acetone, ethyl acetate etc.) was “Soluble in methanol, ethanol, chloroform,”.
In the case of `COc1ccc(C2(C#N)OC23CCCCC3)cc1` (stereo not shown) [formula (I), 2-(4-methoxy-phenyl)-1-oxa-spiro[2.5]octane-2-carbonitrile], the Solubility [1, 4] is reported as “Soluble in methanol, ethanol, chloroform, dichloromethane,”.
With `COc1ccc(C(=O)C2CCCCC2)cc1` [formula (III), cyclohexyl-(4-methoxy-phenyl)-methanone] the Solubility [1, 4] was “Soluble in Methanol, ethanol, chloroform, dichloromethane,”.
